Molecular target: T1, rabbit muscle glycogen phosphorylase (RMGP) (Oryctolagus cuniculus, UniProt P00489)
T1 construct: gene PYGM
T1 sequence (P00489 2-843): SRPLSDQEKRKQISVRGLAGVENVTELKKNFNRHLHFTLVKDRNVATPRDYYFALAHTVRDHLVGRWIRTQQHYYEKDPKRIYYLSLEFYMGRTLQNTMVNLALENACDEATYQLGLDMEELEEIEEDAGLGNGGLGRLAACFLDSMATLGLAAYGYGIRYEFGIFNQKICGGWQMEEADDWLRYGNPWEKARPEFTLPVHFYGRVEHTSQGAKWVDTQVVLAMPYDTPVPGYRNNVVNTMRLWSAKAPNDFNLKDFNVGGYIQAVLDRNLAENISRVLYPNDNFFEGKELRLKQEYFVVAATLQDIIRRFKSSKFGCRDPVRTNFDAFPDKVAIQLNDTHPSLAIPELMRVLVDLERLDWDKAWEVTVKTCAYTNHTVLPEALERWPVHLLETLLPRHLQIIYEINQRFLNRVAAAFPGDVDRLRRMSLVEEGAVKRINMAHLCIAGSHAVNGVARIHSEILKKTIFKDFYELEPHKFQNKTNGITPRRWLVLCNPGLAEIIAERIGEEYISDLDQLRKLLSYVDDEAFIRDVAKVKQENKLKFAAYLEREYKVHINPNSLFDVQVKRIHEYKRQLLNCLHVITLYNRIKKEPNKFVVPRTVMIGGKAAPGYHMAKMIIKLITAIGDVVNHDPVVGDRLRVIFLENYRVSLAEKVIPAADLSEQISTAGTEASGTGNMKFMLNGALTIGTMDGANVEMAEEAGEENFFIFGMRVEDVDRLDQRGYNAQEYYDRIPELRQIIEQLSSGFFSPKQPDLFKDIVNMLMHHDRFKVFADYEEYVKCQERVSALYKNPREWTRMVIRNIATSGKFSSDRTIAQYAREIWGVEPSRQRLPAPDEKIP
Experiment: enzyme kinetics in the direction of glycogen synthesis, RMGP isolated from rabbit skeletal muscle, […] AMP
Format: biochemical

Row | IC50 | SMILES
1 | 88.5 ± 4.3 µM | O=c1[nH]cc([C@@H]2O[C@H](CO)[C@@H](O)[C@H](O)[C@H]2O)c(=O)[nH]1 [compound 4, 5-(β-D-Glucopyranosyl)pyrimidin-2,4-dione]
2 | 5.4 ± 0.5 µM | O=c1[nH]c(Nc2ccc3[nH]c4ccccc4c(=O)c3c2)ncc1[C@@H]1O[C@H](CO)[C@@H](O)[C@H](O)[C@H]1O [compound 6, 2-[(Acridin-9(10H)-on-2-yl)amino]-5-(β-D-glucopyranosyl)pyrimidin-4(3H)-one]
3 | 396 ± 10.8 µM | Nc1ncc([C@@H]2O[C@H](CO)[C@@H](O)[C@H](O)[C@H]2O)c(=O)[nH]1 [compound 5, 2-Amino-5-(β-D-glucopyranosyl)pyrimidin-4(3H)-one]
